Assay [1] deals with Mycosphaerella graminicola (Septoria tritici). As to the kind of experiment: Mycosphaerella graminicola (Septoria tritici) / liquid culture (Septoria blotch). Format: cell-based. As to conditions: Zymoseptoria tritici, PDB potato dextrose broth, 24° C., 4-5 days after application, read-out: disease control (inhibition of growth determined photometrically). The protocol: 13. Mycosphaerella graminicola (Septoria tritici)/Liquid Culture (Septoria Blotch): Conidia of the fungus from cryogenic storage were directly mixed into nutrient broth (PDB potato dextrose broth). After placing a DMSO solution of test compound into a 96-well microtiter plate at an application rate of 200 ppm, the nutrient broth containing the fungal spores was added. The test plates were incubated at 24° C. and the inhibition of growth was determined photometrically 4-5 days after application.

The test system of the next assay is Plasmopara viticola. As to the kind of experiment: whole plant or invertebrate. Format: in vivo. The note with it: foliar, read-out: disease control.
A further assay relates to Gaeumannomyces graminis. Put plainly: Gaeumannomyces graminis / liquid culture (take-all of cereals). In kind it is cell-based. As to conditions: PDB potato dextrose broth, 24° C., 4-5 days after application, read-out: disease control (inhibition of growth determined photometrically). The protocol: 14. Gaeumannomyces graminis/Liquid Culture (Take-all of Cereals): Mycelial fragments of the fungus from cryogenic storage were directly mixed into nutrient broth (PDB potato dextrose broth). After placing a DMSO solution of test compound into a 96-well microtiter plate at an application rate of 200 ppm, the nutrient broth […], containing the fungal spores is added. The test plates were incubated at 24° C. and the inhibition of growth was determined photometrically 4-5 days after application.

For assay [2], the system named is Monographella nivalis (Microdochium nivale). Put plainly: Monographella nivalis (Microdochium nivale) / liquid culture (foot rot cereals). In kind it is cell-based. The note with it: PDB potato dextrose broth, 24° C., 4-5 days after application, read-out: disease control (inhibition of growth determined photometrically).
The next assay relates to Pythium ultimum. As to the kind of experiment: Pythium ultimum / liquid culture (seedling damping off). In kind it is cell-based. As to conditions: Globisporangium ultimum; 200 ppm; potato dextrose broth, 24° C., 2-3 days after application; read-out: disease control (inhibition of growth determined photometrically).
Assay [3] relates to Thanatephorus cucumeris (Rhizoctonia solani). As to the kind of experiment: Thanatephorus cucumeris (Rhizoctonia solani) / liquid culture (foot rot, damping-off). Format: cell-based. The note with it: PDB potato dextrose broth, 24° C., 3-4 days after application, read-out: disease control (inhibition of growth determined photometrically). The protocol:
17. Thanatephorus cucumeris (Rhizoctonia solani)/Liquid Culture (Foot Rot, Damping-Off): Mycelia fragments of a newly grown liquid culture of the fungus were directly mixed into nutrient broth (PDB potato dextrose broth). After placing a DMSO solution of the test compounds into a 96-well microtiter plate at an application rate of 200 ppm, the nutrient broth containing the fungal material was added. The test plates were incubated at 24° C. and the inhibition of growth was determined photometrically 3-4 days after application.

The subject of assay [4] is Mycosphaerella arachidis (Cercospora arachidicola). As to the kind of experiment: Mycosphaerella arachidis (Cercospora arachidicola) / liquid culture (early leaf spot). Format: cell-based. The note with it: PDB potato dextrose broth, 24° C., 4-5 days after application, read-out: disease control (inhibition of growth determined photometrically). The protocol: 12. Mycosphaerella arachidis (Cercospora arachidicola)/Liquid Culture (Early Leaf Spot): Conidia of the fungus from cryogenic storage were directly mixed into nutrient broth (PDB potato dextrose broth). After placing a DMSO solution of test compound into a 96-well microtiter plate at an application rate of 200 ppm, the nutrient broth containing the fungal spores was added. The test plates were incubated at 24° C. and the inhibition of growth was determined photometrically 4-5 days after application.

Consider `O=C(Nc1ccc2ccccc2n1)c1cc2c(cc1F)COB2O` [Compound 179], for which the inhibition at 200 ppm (in assay [1]; with Gaeumannomyces graminis; in assay [2]; in the assay on Pythium ultimum) was no less than 80% in each case. For the same compound, the pest or weed control at 200 ppm with Plasmopara viticola was no less than 80%.

As for `O=C(OCC1CCCO1)c1cc2c(cc1F)COB2O` (centres unmarked) [Compound 400], the pest or weed control at 200 ppm with Plasmopara viticola was no less than 80%. Moreover, the inhibition at 200 ppm (in assay [3]; in the assay on Pythium ultimum) was no less than 80% throughout.

For the compound `O=C(OC1CCOC1)c1ccc2c(c1)B(O)OC2` (centres unmarked) [Compound 364], the pest or weed control at 200 ppm in the assay on Plasmopara viticola is no less than 80%. In addition, the inhibition at 200 ppm (in assay [3]; with Pythium ultimum) was no less than 80% throughout.

On to `O=C(Nc1ccc2ccccc2n1)c1cc2c(cc1Cl)COB2O` [Compound 154], for which the inhibition at 200 ppm (in assay [1]; in the assay on Pythium ultimum) was no less than 80% throughout.

For `N#CCOC(=O)c1ccc2c(c1)B(O)OC2` [Compound 338], the pest or weed control at 200 ppm in the assay with Plasmopara viticola was no less than 80%. The inhibition at 200 ppm (in assay [3]; with Pythium ultimum) was no less than 80% throughout.

Consider `CC(=O)c1sc(NC(=O)c2ccc3c(c2)B(O)OC3)nc1C` [Compound 302], for which the inhibition at 200 ppm (in assay [4]; in the assay on Pythium ultimum) was no less than 80% in each case.

For the compound `O=C(OC1COC1)c1cc2c(cc1F)COB2O` [Compound 425], the pest or weed control at 200 ppm in the assay with Plasmopara viticola was no less than 80%. Besides, the inhibition at 200 ppm with Gaeumannomyces graminis and in the assay on Pythium ultimum was no less than 80% in each case.

As for `O=C(NCc1ccc(Oc2ccccc2)cc1)c1cc2c(cc1Cl)COB2O` [Compound 103], the pest or weed control at 200 ppm in the assay on Plasmopara viticola is no less than 80%. The inhibition at 200 ppm (in the assay on Gaeumannomyces graminis; in assay [2]; in the assay with Pythium ultimum) was no less than 80% throughout.

As to `O=C(OC(CF)CF)c1cc2c(cc1F)COB2O` [Compound 368], the pest or weed control at 200 ppm in the assay on Plasmopara viticola is no less than 80%. Further, the inhibition at 200 ppm (in assay [2]; in assay [3]; in the assay with Pythium ultimum) was no less than 80% each time.

Turning to `O=C(OCC(F)(F)Cl)c1cc2c(cc1F)COB2O` [Compound 374], the inhibition at 200 ppm (in assay [1]; in the assay with Gaeumannomyces graminis; in assay [2]; in assay [3]; in the assay on Pythium ultimum) was no less than 80% each time. Also, in the assay with Plasmopara viticola, the pest or weed control at 200 ppm is no less than 80%.

Regarding `O=C(OCc1ccco1)c1cc2c(cc1Cl)COB2O` [Compound 210], the inhibition at 200 ppm (with Gaeumannomyces graminis; in assay [3]; with Pythium ultimum) was no less than 80% in each case.

In the case of `C=CCC(OC(=O)c1cc2c(cc1Cl)COB2O)C(=O)OC` (centres unmarked) [Compound 222], the inhibition at 200 ppm (in assay [2]; in assay [3]; with Pythium ultimum) was no less than 80% each time.

On to `O=C(OCCC(F)(F)F)c1cc2c(cc1F)COB2O` [Compound 431], for which the inhibition at 200 ppm (with Gaeumannomyces graminis; in assay [2]; in assay [3]; in the assay on Pythium ultimum) was no less than 80% throughout.

As to `COCCOCCOCCOC(=O)c1ccc2c(c1)B(O)OC2` [Compound 371], the inhibition at 200 ppm (in assay [4]; with Pythium ultimum) was no less than 80% each time.

`COc1ccc(-c2ccccc2)cc1NC(=O)c1ccc2c(c1)B(O)OC2` [Compound 289]: in the assay with Plasmopara viticola, the pest or weed control at 200 ppm is no less than 80%. Moreover, the inhibition at 200 ppm with Pythium ultimum is no less than 80%.

Take `N#CCCOC(=O)c1cc2c(cc1F)COB2O` [Compound 420]: the pest or weed control at 200 ppm with Plasmopara viticola is no less than 80%. Further, in the assay on Pythium ultimum, the inhibition at 200 ppm is no less than 80%.

For `O=C(Nc1ccccc1N1CCOCC1)c1cc2c(cc1F)COB2O` [Compound 170], the pest or weed control at 200 ppm with Plasmopara viticola is no less than 80%. The inhibition at 200 ppm with Pythium ultimum was no less than 80%.

Consider `CC(C#N)OC(=O)c1cc2c(cc1F)COB2O` (centres unmarked) [Compound 376], for which the pest or weed control at 200 ppm in the assay on Plasmopara viticola was no less than 80%. In addition, the inhibition at 200 ppm in the assay on Pythium ultimum was no less than 80%.

In the case of `O=C(NCc1ccccc1)c1cc2c(cc1F)COB2O` [Compound 104], the inhibition at 200 ppm (in assay [4]; in the assay on Pythium ultimum) was no less than 80% throughout.

As for `O=C(Nc1cccc(F)c1)c1ccc2c(c1)B(O)OC2` [Compound 285], in the assay with Plasmopara viticola, the pest or weed control at 200 ppm is no less than 80%. Further, in the assay with Pythium ultimum, the inhibition at 200 ppm was no less than 80%.

In the case of `CC(C#N)OC(=O)c1ccc2c(c1)B(O)OC2` (centres unmarked) [Compound 315], the inhibition at 200 ppm (in assay [3]; in the assay on Pythium ultimum) was no less than 80% in each case.

As for `N#CCCOC(=O)c1ccc2c(c1)B(O)OC2` [Compound 357], the pest or weed control at 200 ppm in the assay with Plasmopara viticola is no less than 80%. In addition, the inhibition at 200 ppm in the assay on Pythium ultimum is no less than 80%.

Regarding `CC(C)c1ccc(NC(=O)c2ccc3c(c2)B(O)OC3)cc1` [Compound 279], the pest or weed control at 200 ppm with Plasmopara viticola was no less than 80%. Further, the inhibition at 200 ppm (in assay [2]; in the assay with Pythium ultimum) was no less than 80% throughout.

On to `COc1ccc(NC(=O)c2cc3c(cc2F)COB3O)c(OC)c1` [Compound 155], for which, in the assay on Plasmopara viticola, the pest or weed control at 200 ppm is no less than 80%. Further, in the assay on Pythium ultimum, the inhibition at 200 ppm was no less than 80%.

Regarding `O=C(Nc1ccc(Oc2ccccc2)nc1)c1cc2c(cc1F)COB2O` [Compound 185], in the assay with Plasmopara viticola, the pest or weed control at 200 ppm is no less than 80%. In the assay with Pythium ultimum, the inhibition at 200 ppm is no less than 80%.

Regarding `O=C(COC(=O)c1cc2c(cc1F)COB2O)c1ccccc1` [Compound 397], the inhibition at 200 ppm (in assay [1]; in assay [2]; in assay [3]; with Pythium ultimum) was no less than 80% throughout. Further, the pest or weed control at 200 ppm in the assay with Plasmopara viticola is no less than 80%.

Turning to `O=C(NCc1cccc(Cl)c1)c1ccc2c(c1)B(O)OC2` [Compound 268], the pest or weed control at 200 ppm in the assay on Plasmopara viticola was no less than 80%. Moreover, the inhibition at 200 ppm in the assay on Pythium ultimum is no less than 80%.

Turning to `COC(=O)c1sccc1NC(=O)c1ccc2c(c1)B(O)OC2` [Compound 308], the pest or weed control at 200 ppm in the assay with Plasmopara viticola was no less than 80%. Besides, in assay [2], the inhibition at 200 ppm was no less than 80%.

For `CC(NC(=O)c1cc2c(cc1F)COB2O)c1ccccc1` (centres unmarked) [Compound 109], the pest or weed control at 200 ppm in the assay with Plasmopara viticola is no less than 80%. The inhibition at 200 ppm with Pythium ultimum is no less than 80%.

As to `O=C(NCc1ccccc1OC(F)(F)F)c1cc2c(cc1Cl)COB2O` [Compound 95], the pest or weed control at 200 ppm in the assay with Plasmopara viticola is no less than 80%. Besides, the inhibition at 200 ppm in assay [2] is no less than 80%.

As for `CC(F)COC(=O)c1ccc2c(c1)B(O)OC2` (centres unmarked) [Compound 335], the pest or weed control at 200 ppm with Plasmopara viticola was no less than 80%. Further, the inhibition at 200 ppm (in assay [3]; with Pythium ultimum) was no less than 80% in each case.

Consider `O=C(OC1CCCCC1)c1cc2c(cc1F)COB2O` [Compound 417], for which the inhibition at 200 ppm (in assay [1]; in the assay with Gaeumannomyces graminis; in assay [2]; in assay [3]; with Pythium ultimum) was no less than 80% throughout. Moreover, in the assay on Plasmopara viticola, the pest or weed control at 200 ppm is no less than 80%.

In the case of `O=C(OCC(Cl)(Cl)Cl)c1ccc2c(c1)B(O)OC2` [Compound 321], the inhibition at 200 ppm (in assay [1]; in the assay with Gaeumannomyces graminis; in assay [2]; in assay [3]; with Pythium ultimum) was no less than 80% each time.

`C#CC(OC(=O)c1cc2c(cc1F)COB2O)c1ccccc1` (centres unmarked) [Compound 399]: the inhibition at 200 ppm (in assay [1]; in the assay on Gaeumannomyces graminis; in assay [2]; in assay [3]; in the assay with Pythium ultimum) was no less than 80% throughout. Besides, the pest or weed control at 200 ppm with Plasmopara viticola is no less than 80%.

`Cc1ccccc1NC(=O)c1cc2c(cc1F)COB2O` [Compound 148]: the inhibition at 200 ppm (in assay [3]; in the assay on Pythium ultimum) was no less than 80% throughout.

Take `O=C(Nc1ccc(S(=O)(=O)Nc2ccccn2)cc1)c1cc2c(cc1F)COB2O` [Compound 174]: the pest or weed control at 200 ppm in the assay with Plasmopara viticola is no less than 80%. In the assay on Pythium ultimum, the inhibition at 200 ppm was no less than 80%.

As for `COc1ccc(NC(=O)c2ccc3c(c2)B(O)OC3)c(OC)c1` [Compound 283], the pest or weed control at 200 ppm with Plasmopara viticola is no less than 80%. For the same compound, in the assay on Pythium ultimum, the inhibition at 200 ppm is no less than 80%.

On to `O=C(Nc1ccccc1-c1cc2ccccc2[nH]1)c1ccc2c(c1)B(O)OC2` [Compound 292], for which, in the assay with Plasmopara viticola, the pest or weed control at 200 ppm was no less than 80%. Besides, the inhibition at 200 ppm in the assay with Gaeumannomyces graminis and with Pythium ultimum was no less than 80% each time.

`C[Si](C)(C)CCCOC(=O)c1ccc2c(c1)B(O)OC2` [Compound 316]: the inhibition at 200 ppm (in the assay on Gaeumannomyces graminis; in assay [2]; in assay [3]; in the assay on Pythium ultimum) was no less than 80% each time.

The term inhibition denotes the change of the read-out against control, counted positive when it falls.

The values above are taken from US20170000133A1, “BENZOXABOROLE FUNGICIDES” (SYNGENTA PARTICIPATIONS AG, priority 2013, published 2017).
